Experimental data from publication PMC7551886, “Antitumour Effects of Astaxanthin and Adonixanthin on Glioblastoma” (Marine Drugs, 2020).

What was measured:
GL261 cells [1] = test: BrdU cell proliferation assay; assay type: cell-based, mouse; conditions: GL261, 10 µM treatment for 72 h; control group 60.56 ± 1.40%
Description: GL261 cells were seeded onto 96-well plates at a density of 2 × 10^3 cells/well with DMEM supplemented with 10% FBS and then incubated for 24 h, after which the culture medium was changed to DMEM containing 10% FBS. Then, astaxanthin, adonixanthin, or temozolomide (Tokyo Chemical Industry Co., Ltd., Tokyo, Japan) were added to the culture. After 72 h of culture, the culture medium was changed to DMEM containing 10% FBS and treated with BrdU at 10 µM for 3 h. After that, immunocytochemistry was performed according to the protocol of anti-BrdU antibody (abcam, ab6326).

GL261 cells [2] = test: Wound healing (cell migration) assay in GL261; assay type: cell-based, mouse; conditions: GL261, 10 µM, 48 h
Description: The cell migration assay was conducted as previously described. GL261 cells and U251 cells (2.0 × 10^4 cells per well) were plated in a 12-well plate (BD Biosciences, Tokyo, Japan) with culture medium supplemented with 10% FBS. After 24 h of incubation, the medium was changed to DMEM containing 1% FBS. After 6 h, wounds were scratched by a P1000 pipette tip and washed with phosphate-buffered saline (PBS) to eliminate cell debris. Then, fresh medium was added with 10 µM astaxanthin or adonixanthin. Pictures were taken at 48 h and these scratched areas were measured using an All-in-One Fluorescence Microscope (BZ-X710; Keyence, Osaka, Japan). The cell migration rate was measured the area of the wound before migration (S0) and after migration (S1) and calculated […]. The control group was then standardized to be 100%. Wound widths at 0 h were created within 1 to 1.5 mm and data were excluded if they were not suitable for that width.

[3] = system: intracellular ROS in GL261 cells; test: Reactive oxygen species assay (CM-H2DCFDA); assay type: cell-based, mouse; conditions: GL261, 1 and 10 µM, 6 h
Description: Intracellular radical activation within GL261 cells was measured with 5-(and-6)-chloromethyl—2′,7′-dichlorodihydrofluorescein diacetate, acetyl ester (CM-H2DCFDA; Thermo Fisher Scientific, MA, USA). Six hours after treatment of temozolomide, astaxanthin, or adonixanthin, CM-H2DCFDA was added to the culture medium and incubated at 37 °C for 1 h under shading in GL261. Fluorescence was measured using a Varioscan Flash 2.4 microplate reader (Thermo Fisher Scientific, MA, USA) at 485 (excitation)-535 nm (emission). Measurements were performed 0, 30, and 60 min after the addition of CM-H2DCFDA.

[4] = ICR, mouse, in vivo, po
Description: In the experiment of the murine orthotopic glioblastoma model, oral administration of each astaxanthin (10 and 30 mg/kg) and adonixanthin (10 and 30 mg/kg) was initiated 3 days after intracranial injection of GL261 cells and was continued for 10 days. In the experiment of the brain tissue absorption with oral astaxanthin or adonixanthin, after one week of adaptation, ICR mice were randomly divided into the following three groups: control group, astaxanthin group (50 mg/kg), and adonixanthin group (50 mg/kg). Mice were orally administered each reagent suspended in olive oil (5 mL/kg) by the daily single dose for 10 days. The control group was treated by olive oil alone (5 mL/kg).
In mice, blood samples were collected under anaesthesia by using sodium pentobarbital (50 mg/kg, 10 mL/kg, i.p). To separate serum and from blood, we centrifuged at 1700 g for 10 min. […]
Carotenoid fraction was collected from blood and some tissues by silica gel HPLC using a Cosmosil 5SL-II column with acetone:hexane (2:8, v/v) for the mobile phase at a flow rate of 1.0 mL/min as described above. […] Identification of each carotenoid was performed by authentic carotenoids obtained from Paracoccus (ENEOS Corporation, Tokyo, Japan) by our routine methods and the content of each carotenoid was calculated from peak areas by comparison with the authentic samples.

| SMILES | BrdU-positive cell rate (GL261 cells [1]) [%] | suppression of cell migration (GL261 cells [2]) [%] | amount of intracellular ROS [3] | concentration detected in the brain [4] |
| --- | --- | --- | --- | --- |
| CC1=C(/C=C/C(C)=C/C=C/C(C)=C/C=C/C=C(C)/C=C/C=C(C)/C=C/C2=C(C)C(=O)[C@@H](O)CC2(C)C)C(C)(C)C[C@H](O)C1 [Adonixanthin, adonixanthin] | 41.31 ± 1.51 | 13.74 ± 4.01 | decreased | ~0.01 µM |
| CC1=C(/C=C/C(C)=C/C=C/C(C)=C/C=C/C=C(C)/C=C/C=C(C)/C=C/C2=C(C)C(=O)[C@@H](O)CC2(C)C)C(C)(C)C[C@H](O)C1=O [Astaxanthin, astaxanthin] | 49.13 ± 2.66 | 8.84 ± 2.09 | decreased | approximately 30 nM |
